In patent US10975093B2, “Fused 1,4-diazepines as BET protein degraders” (THE REGENTS OF THE UNIVERSITY OF MICHIGAN, priority 2016, dated 2021):

Tests used:
Format in all cases: cell-based
MDA-MB-231 = assay: Cell growth inhibition, CellTiter-Glo Luminescent Cell Viability Assay, MDA-MB-231; details: Homo sapiens, MDA-MB-231 cells, 4 days incubation
Procedure, shortened: (§1)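 IC50 values come from CellTiter-Glo ATP luminescence after a 4-day exposure to a compound dilution series. Seeding was 2,000 cells per well at 37° C under 5% CO2, with reagent read after 10-20 min at room temperature.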

MOLM-13 = assay: Cell growth inhibition, CellTiter-Glo Luminescent Cell Viability Assay, MOLM-13; details: Homo sapiens, MOLM-13 cells, 4 days incubation
Procedure, shortened: as §1

RS4; 11 = assay: Cell growth inhibition, CellTiter-Glo Luminescent Cell Viability Assay, RS4;11; details: Homo sapiens, 96 h, RS4;11 cells, 4 days incubation
Description: (§2) Cell growth inhibitory activity of representative Compounds of the Disclosure was determined in various cell lines using CellTiter-Glo® Luminescent Cell Viability Assay. Cells were seeded in 384-well white opaque cell culture plates at a density of 2,000 cells/well with serially diluted compounds and incubated at 37° C. in an atmosphere of 95% air and 5% CO2 for 4 days. Cell viability was determined using the CellTiter-Glo® Luminescent Cell Viability Assay Kit (Promega, Madison, Wis.) according to the manufacture's instruction. Briefly, a volume of CellTiter-Glo® Reagent equal to the volume of cell culture medium was added to each well, and then the plates were incubated at room temperature for 10-20 minutes. The luminescent signal was measured using a Tecan Infinite M1000 multimode microplate reader (Tecan, Morrisville, N.C.). The half maximal inhibitory concentration (IC50) was calculated using the GraphPad Prism 5 software (GraphPad Software, La Jolla, Calif.).

MDA-MB-468 = assay: Cell growth inhibition, CellTiter-Glo Luminescent Cell Viability Assay, MDA-MB-468; details: Homo sapiens, 96 h, MDA-MB-468 cells, 4 days incubation
Description: as §2

Row | SMILES | IC50 (MDA-MB-231; 96 h) | IC50 (MOLM-13; 96 h) | IC50 (RS4; 11) | IC50 (MDA-MB-468) | IC50 (MDA-MB-231; MDA-MB-231, 96 h) | IC50 (MOLM-13; MOLM-13, 96 h)
1 | Cc1c(C#Cc2cn(CCCC#Cc3cccc4c3CN(C3CCC(=O)NC3=O)C4=O)nn2)sc2c1C(c1ccc(Cl)cc1)=NCc1nnc(C)n1-2 (stereo not drawn) [Cpd. No. 1, 3-(4-(5-(4-((4-(4-chlorophenyl)-3,9-dimethyl-6H-thieno[3,2-f][1,2,4]triazolo[4,3-a][1,4]diazepin-2-yl)ethynyl)-1H-1,2,3-triazol-1-yl)pent-1-yn-1-yl)-1-oxoisoindolin-2-yl)piperidine-2,6-dione] | 8.1 nM | 1.16 nM | 0.25 nM | 10 nM |  | 
2 | Cc1c(C#Cc2cn(CCCC#Cc3cccc4c3CN(C3CCC(=O)NC3=O)C4=O)nn2)sc2c1C(c1ccc(Cl)cc1)=N[C@@H](C)c1nnc(C)n1-2 (stereo partly drawn) [Cpd. No. 2, 3-(4-(5-(4-(((S)-4-(4-chlorophenyl)-3,6,9-trimethyl-6H-thieno[3,2-f][1,2,4]triazolo[4,3-a][1,4]diazepin-2-yl)ethynyl)-1H-1,2,3-triazol-1-yl)pent-1-yn-1-yl)-1-oxoisoindolin-2-yl)piperidine-2,6-dione] | 0.19 nM | 0.4 nM | < 0.0015 nM | 0.27 nM |  | 
3 | Cc1c(C#Cc2cn(CCCCCc3cccc4c3CN(C3CCC(=O)NC3=O)C4=O)nn2)sc2c1C(c1ccc(Cl)cc1)=NCc1nnc(C)n1-2 (stereo not drawn) [Cpd. No. 3, 3-(4-(5-(4-((4-(4-chlorophenyl)-3,9-dimethyl-6H-thieno[3,2-f][1,2,4]triazolo[4,3-a][1,4]diazepin-2-yl)ethynyl)-1H-1,2,3-triazol-1-yl)pentyl)-1-oxoisoindolin-2-yl)piperidine-2,6-dione] | 3.5 nM | 1 nM | 0.27 nM | 3.1 nM |  | 
4 | Cc1c(C#Cc2cn(CCCCCc3cccc4c3CN(C3CCC(=O)NC3=O)C4=O)nn2)sc2c1C(c1ccc(Cl)cc1)=N[C@@H](C)c1nnc(C)n1-2 (stereo partly drawn) [Cpd. No. 4, 3-(4-(5-(4-(((S)-4-(4-chlorophenyl)-3,6,9-trimethyl-6H-thieno[3,2 f][1,2,4]triazolo[4,3-a][1,4]diazepin-2-yl)ethynyl)-1H-1,2,3-triazol-1-yl)pentyl)-1-oxoisoindolin-2-yl)piperidine-2,6-dione] | < 0.015 nM | 0.3 nM | < 0.0015 nM | < 0.015 nM |  | 
5 | Cc1c(C#Cc2cn(CCCCNc3cccc4c3CN(C3CCC(=O)NC3=O)C4=O)nn2)sc2c1C(c1ccc(Cl)cc1)=NCc1nnc(C)n1-2 (stereo not drawn) [Cpd. No. 5, 3-(4-((4-(4-((4-(4-chlorophenyl)-3,9-dimethyl-6H-thieno[3,2-f][1,2,4]triazolo[4,3-a][1,4]diazepin-2-yl)ethynyl)-1H-1,2,3-triazol-1-yl)butyl)amino)-1-oxoisoindolin-2-yl)piperidine-2,6-dione] | 22.8 nM | 3.6 nM | 0.29 nM | 26.1 nM |  | 
6 | Cc1c(C#Cc2ccc(OCCCCc3cccc4c3CN(C3CCC(=O)NC3=O)C4=O)cn2)sc2c1C(c1ccc(Cl)cc1)=NCc1nnc(C)n1-2 (stereo not drawn) [Cpd. No. 11, 3-(4-(4-((6-((4-(4-chlorophenyl)-3,9-dimethyl-6H-thieno[3,2-f][1,2,4]triazolo[4,3-a][1,4]diazepin-2-yl)ethynyl)pyridin-3-yl)oxy)butyl)-1-oxoisoindolin-2-yl)piperidine-2,6-dione] | 18.1 nM | 11.4 nM |  | 51 nM |  | 
7 | Cc1c(C#Cc2ccc(OCCCCc3cccc4c3CN(C3CCC(=O)NC3=O)C4=O)cn2)sc2c1C(c1ccc(Cl)cc1)=N[C@@H](C)c1nnc(C)n1-2 (stereo partly drawn) [Cpd. No. 12, 3-(4-(4-((6-(((S)-4-(4-chlorophenyl)-3,6,9-trimethyl-6H-thieno[3,2-f][1,2,4]triazolo[4,3-a][1,4]diazepin-2-yl)ethynyl)pyridin-3-yl)oxy)butyl)-1-oxoisoindolin-2-yl)piperidine-2,6-dione] | 0.86 nM | 1.2 nM |  | 3 nM |  | 
8 | Cc1c(C#Cc2ccc(CCCC#Cc3cccc4c3CN(C3CCC(=O)NC3=O)C4=O)cn2)sc2c1C(c1ccc(Cl)cc1)=NCc1nnc(C)n1-2 (stereo not drawn) [Cpd. No. 13, 3-(4-(5-(6-((4-(4-chlorophenyl)-3,9-dimethyl-6H-thieno[3,2-f][1,2,4]triazolo[4,3-a][1,4]diazepin-2-yl)ethynyl)pyridin-3-yl)pent-1-yn-1-yl)-1-oxoisoindolin-2-yl)piperidine-2,6-dione] |  |  |  | 32.4 nM | 7.4 nM | 6.4 nM
9 | Cc1c(C#Cc2ccc(CCCC#Cc3cccc4c3CN(C3CCC(=O)NC3=O)C4=O)cn2)sc2c1C(c1ccc(Cl)cc1)=N[C@@H](C)c1nnc(C)n1-2 (stereo partly drawn) [Cpd. No. 14, 3-(4-(5-(6-(((S)-4-(4-chlorophenyl)-3,6,9-trimethyl-6H-thieno[3,2-f][1,2,4]triazolo[4,3-a][1,4]diazepin-2-yl)ethynyl)pyridin-3-yl)pent-1-yn-1-yl)-1-oxoisoindolin-2-yl)piperidine-2,6-dione] |  |  |  | 1.1 nM | 0.18 nM | 0.24 nM
10 | Cc1c(C#Cc2cnn(CCCC#Cc3cccc4c3C(=O)N(C3CCC(=O)NC3=O)C4=O)c2)sc2c1C(c1ccc(Cl)cc1)=N[C@@H](C)c1nnc(C)n1-2 (stereo partly drawn) [Cpd. No. 30, 4-(5-(4-(((S)-4-(4-chlorophenyl)-3,6,9-trimethyl-6H-thieno[3,2-f][1,2,4]triazolo[4,3-a][1,4]diazepin-2-yl)ethynyl)-1H-pyrazol-1-yl)pent-1-yn-1-yl)-2-(2,6-dioxopiperidin-3-yl)isoindoline-1,3-dione] |  |  |  | 3.6 nM | 3.7 nM | 
11 | Cc1c(C#Cc2cnn(CCCCOc3cccc4c3C(=O)N(C3CCC(=O)NC3=O)C4=O)c2)sc2c1C(c1ccc(Cl)cc1)=N[C@@H](C)c1nnc(C)n1-2 (stereo partly drawn) [Cpd. No. 32, 4-(4-(4-(((S)-4-(4-chlorophenyl)-3,6,9-trimethyl-6H-thieno[3,2-f][1,2,4]triazolo[4,3-a][1,4]diazepin-2-yl)ethynyl)-1H-pyrazol-1-yl)butoxy)-2-(2,6-dioxopiperidin-3-yl)isoindoline-1,3-dione] |  |  |  | 3.5 nM | 2.5 nM | 
12 | Cc1c(C#Cc2cnn(CCCCOc3cccc4c3CN(C3CCC(=O)NC3=O)C4=O)c2)sc2c1C(c1ccc(Cl)cc1)=N[C@@H](C)c1nnc(C)n1-2 (stereo partly drawn) [compound 147, 3-(4-(4-(4-(((S)-4-(4-chlorophenyl)-3,6,9-trimethyl-6H-thieno[3,2-f][1,2,4]triazolo[4,3-a][1,4]diazepin-2-yl)ethynyl)-1H-pyrazol-1-yl)butoxy)-1-oxoisoindolin-2-yl)piperidine-2,6-dione] |  |  | 0.05 nM |  | 0.08 nM | 
13 | Cc1c(C#Cc2cnn(CCCC#Cc3cccc4c3CN(C3CCC(C)NC3=O)C4=O)c2)sc2c1C(c1ccc(Cl)cc1)=NCc1nnc(C)n1-2 (stereo not drawn) [compound 161, 4-(5-(4-((4-(4-chlorophenyl)-3,9-dimethyl-6H-thieno[3,2-f][1,2,4]triazolo[4,3-a][1,4]diazepin-2-yl)ethynyl)-1H-pyrazol-1-yl)pent-1-yn-1-yl)-2-(6-methyl-2-oxopiperidin-3-yl)isoindolin-1-one] |  |  | 20.4 nM |  | 71.8 nM | 
14 | Cc1c(C#Cc2cnn(CCCC#Cc3cccc4c3CN(C3CCC(C)NC3=O)C4=O)c2)sc2c1C(c1ccc(Cl)cc1)=N[C@@H](C)c1nnc(C)n1-2 (stereo partly drawn) [compound 162, 4-(5-(4-(((S)-4-(4-chlorophenyl)-3,6,9-trimethyl-6H-thieno[3,2-f][1,2,4]triazolo[4,3-a][1,4]diazepin-2-yl)ethynyl)-1H-pyrazol-1-yl)pent-1-yn-1-yl)-2-(6-methyl-2-oxopiperidin-3-yl)isoindolin-1-one] |  |  | 2.4 nM |  | 22 nM | 
15 | Cc1c(C#Cc2cnn(CCCC#Cc3cccc4c3C(=O)N(C3CCC(=O)NC3)C4=O)c2)sc2c1C(c1ccc(Cl)cc1)=NCc1nnc(C)n1-2 (stereo not drawn) [compound 163, 4-(5-(4-((4-(4-chlorophenyl)-3,9-dimethyl-6H-thieno[3,2-f][1,2,4]triazolo[4,3-a][1,4]diazepin-2-yl)ethynyl)-1H-pyrazol-1-yl)pent-1-yn-yl)-2-(6-oxopiperidin-3-yl)isoindoline-1,3-dione] |  |  | 216 nM |  | 284 nM | 
16 | Cc1c(C#Cc2cnn(CCCCNc3cccc4c3C(=O)N(C3CCC(=O)NC3)C4=O)c2)sc2c1C(c1ccc(Cl)cc1)=NCc1nnc(C)n1-2 (stereo not drawn) [compound 164, 4-((4-(4-((4-(4-chlorophenyl)-3,9-dimethyl-6H-thieno[3,2-f][1,2,4]triazolo[4,3-a][1,4]diazepin-2-yl)ethynyl)-1H-pyrazol-1-yl)butyl)amino)-2-(6-oxopiperidin-3-yl)isoindoline-1,3-dione] |  |  | 74 nM |  | 78.5 nM | 
17 | Cc1c(C#Cc2cnn(CCCCN3C(=O)CCC(N4Cc5c(N)cccc5C4=O)C3=O)c2)sc2c1C(c1ccc(Cl)cc1)=N[C@@H](C)c1nnc(C)n1-2 (stereo partly drawn) [compound 165, 3-(4-amino-1-oxoisoindolin-2-yl)-1-(4-(4-(((S)-4-(4-chlorophenyl)-3,6,9-trimethyl-6H-thieno[3,2-f][1,2,4]triazolo[4,3-a][1,4]diazepin-2-yl)ethynyl)-1H-pyrazol-1-yl)butyl)piperidine-2,6-dione] |  |  | 3.7 nM |  | 12.7 nM | 
